{
  "source": "patent US8916551B2",
  "about": "“Heterocyclic compound and use thereof” (Takeda Pharmaceutical Company Limited, priority 2010, dated 2014)",
  "key": {"[1]": {"test_system": "methamphetamine (MAP)-induced hyperlocomotion in mice", "test": "Inhibition of methamphetamine (MAP)-induced hyperlocomotion", "format": "in vivo", "conditions": "male ICR mice; compound 10 mg/kg p.o. 60 min before MAP 2 mg/kg s.c.; counts 120 min after MAP", "protocol": "Male ICR mice were supplied by CLEA Japan, Inc (Japan). After arrival to the vivarium, animals were allowed a minimum of 1 week for acclimation. They were housed under a 12:12-h light/dark cycle in a temperature- and humidity-controlled laboratory and allowed food and water ad libitum.\nA test compound was suspended in 0.5% methylcellulose in distilled water and orally administered (p.o.). Methamphetamine (Dainippon Sumitomo Pharma Co., Ltd.) was dissolved in saline and subcutaneously administered (s.c.). All drugs were dosed in a volume of 10 mL/kg body weight for mice.\nThe widely used animal models of psychosis have been the measurement of the extent of hyperlocomotion induced by psychostimulants (e.g., amphetamine, cocaine, methamphetamine, MK-801 and phencyclidine) in rodents (Psychopharmacology 1999, vol. 145: 237-250). 4 compounds (A, B, C, D) were tested for its ability to antagonize MAP-induced hyperlocomotion in mice. Male ICR mice were habituated in the locomotor chambers with infrared sensors (BrainScienceldea Co., Ltd. Japan) to the experiment. After the habituation, animals were treated with either vehicle or the compounds (10 mg/kg, p.o.), and MAP (2 mg/kg, s.c.) was administrated 60 min later. Locomotion activities were measured, and accumulated counts (120 min after administration of MAP) were calculated in each treatment group. All data were represented as means plus the standard errors of the means (n=3-9) and analyzed using Student's t-test with significance set at **P<0.01 and ***P<0.001 or Welch's t-test with significance set at ^$P<0.05, ^$$P<0.01 and ^$$$P<0.001."}, "[2]": {"molecular_target": "T1, AMPA receptor (human GluR1 flip/stargazin expressed in CHO-K1 cells) (Homo sapiens, UniProt P42261)", "T1 construct": "expressed in transfected cells; host or cells: CHO-K1", "T1 sequence (P42261 19-906 isoform P42261-2 limits assumed)": "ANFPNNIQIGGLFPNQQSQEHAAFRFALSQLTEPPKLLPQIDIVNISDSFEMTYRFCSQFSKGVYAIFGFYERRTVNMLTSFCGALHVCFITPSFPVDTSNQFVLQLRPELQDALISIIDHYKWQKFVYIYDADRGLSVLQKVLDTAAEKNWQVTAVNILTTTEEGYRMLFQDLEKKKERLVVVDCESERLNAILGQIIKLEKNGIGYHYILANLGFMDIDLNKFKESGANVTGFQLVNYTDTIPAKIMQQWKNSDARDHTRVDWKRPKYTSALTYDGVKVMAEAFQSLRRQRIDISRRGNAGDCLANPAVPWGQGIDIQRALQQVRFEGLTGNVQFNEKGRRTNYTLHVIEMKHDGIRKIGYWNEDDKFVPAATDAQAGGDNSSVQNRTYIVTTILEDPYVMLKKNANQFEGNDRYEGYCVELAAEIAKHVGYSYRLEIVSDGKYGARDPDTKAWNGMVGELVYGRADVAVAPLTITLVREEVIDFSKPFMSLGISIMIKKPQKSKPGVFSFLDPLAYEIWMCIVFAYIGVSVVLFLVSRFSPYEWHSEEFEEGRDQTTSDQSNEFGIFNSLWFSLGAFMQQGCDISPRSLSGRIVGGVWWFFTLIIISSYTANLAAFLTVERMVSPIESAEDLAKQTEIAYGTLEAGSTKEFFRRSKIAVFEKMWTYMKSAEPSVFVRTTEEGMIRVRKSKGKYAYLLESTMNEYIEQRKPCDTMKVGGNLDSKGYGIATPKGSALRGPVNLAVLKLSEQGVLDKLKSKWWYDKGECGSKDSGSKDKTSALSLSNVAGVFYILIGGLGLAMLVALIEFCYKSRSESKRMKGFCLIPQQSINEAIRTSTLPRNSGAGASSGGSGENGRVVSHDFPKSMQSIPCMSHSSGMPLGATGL", "T1 sequence (Q9Y698 whole entry partner)": "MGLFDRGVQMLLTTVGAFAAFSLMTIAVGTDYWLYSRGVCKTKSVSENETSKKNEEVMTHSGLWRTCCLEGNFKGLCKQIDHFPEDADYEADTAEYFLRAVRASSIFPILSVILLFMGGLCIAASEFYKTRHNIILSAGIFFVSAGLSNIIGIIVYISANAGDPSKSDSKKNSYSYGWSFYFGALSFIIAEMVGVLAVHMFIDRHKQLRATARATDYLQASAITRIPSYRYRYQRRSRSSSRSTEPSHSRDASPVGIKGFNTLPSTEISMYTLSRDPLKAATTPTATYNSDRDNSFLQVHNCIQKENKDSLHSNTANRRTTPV", "test": "AMPA receptor function enhancing activity using calcium influx as index", "format": "cell-based", "conditions": "test compound 30 μM with 3 mM glutamic acid, change in fluorescence level in 3 min, 100% = 3 mM glutamic acid + 300 μM cyclothiazide, 0% = 3 mM glutamic acid only", "summary_of_the_method": "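CHO-K1 clone stably co-expressing human GluR1 flip and stargazin, loaded with Calcium 4 dye plus probenecid. Compound at 30 μM was added with glutamate (3 mM final) and fluorescence change followed over 3 min. Activity is expressed as % of the 3 mM glutamate plus 300 μM cyclothiazide response, with glutamate alone as 0%.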"}},
  "data": [
    {"smiles": "O=S1(=O)CCN2C=CC=C(c3ccc(Oc4ccccc4)cc3)C2=N1", "note": "[A, 9-(4-phenoxyphenyl)-3,4-dihydropyrido[2,1-c][1,2,4]thiadiazine 2,2-dioxide]", "values": [
      {"measurement": "inhibition of MAP-induced hyperlocomotion (accumulated locomotion counts 0-120 min)", "setting": "[1]", "value": "significant inhibition"}
    ]},
    {"smiles": "Cc1ccc(Oc2ccc(C3=CC=CN4CCS(=O)(=O)N=C34)cc2)cc1", "note": "[B, 9-[4-(4-methylphenoxy)phenyl]-3,4-dihydropyrido[2,1-c][1,2,4]thiadiazine 2,2-dioxide]", "values": [
      {"measurement": "inhibition of MAP-induced hyperlocomotion (accumulated locomotion counts 0-120 min)", "setting": "[1]", "value": "significant inhibition"}
    ]},
    {"smiles": "CC1=CN2CCS(=O)(=O)N=C2C(c2ccc(OC3CCCCC3)cc2)=N1", "note": "[C, 9-[4-(cyclohexyloxy)phenyl]-7-methyl-3,4-dihydropyrazino[2,1-c][1,2,4]thiadiazine 2,2-dioxide]", "values": [
      {"measurement": "inhibition of MAP-induced hyperlocomotion (accumulated locomotion counts 0-120 min)", "setting": "[1]", "value": "significant inhibition"}
    ]},
    {"smiles": "O=S1(=O)CCN2C=CC=C(c3ccc(OC4CCCCC4)cc3)C2=N1", "note": "[D, 9-[4-(cyclohexyloxy)phenyl]-3,4-dihydropyrido[2,1-c][1,2,4]thiadiazine 2,2-dioxide]", "values": [
      {"measurement": "inhibition of MAP-induced hyperlocomotion (accumulated locomotion counts 0-120 min)", "setting": "[1]", "value": "significant inhibition"}
    ]},
    {"smiles": "CC(C)Oc1ccc(C2=CC=CN3CCS(=O)(=O)N=C23)cc1Cl", "note": "[Example 208, 9-[3-chloro-4-(1-methylethoxy)phenyl]-3,4-dihydropyrido[2,1-c][1,2,4]thiadiazine 2,2-dioxide]", "values": [
      {"measurement": "activity (%)", "setting": "[2]", "value": 79, "unit": "%"},
      {"measurement": "melting point", "value": "239 to 240", "unit": "°C"}
    ]},
    {"smiles": "Cc1ccc(Oc2ccc([C@@H]3CCCN4CCS(=O)(=O)N=C34)cc2)cc1C", "note": "[Example 216, (9S)-9-[4-(3,4-dimethylphenoxy)phenyl]-3,4,6,7,8,9-hexahydropyrido[2,1-c][1,2,4]thiadiazine 2,2-dioxide]", "values": [
      {"measurement": "activity (%)", "setting": "[2]", "value": 71, "unit": "%"},
      {"measurement": "melting point", "value": "170 to 171", "unit": "°C"}
    ]},
    {"smiles": "CCc1ccc(Oc2ccc([C@@H]3CCCN4CCS(=O)(=O)N=C34)cc2)cc1", "note": "[Example 218, (9S)-9-[4-(4-ethylphenoxy)phenyl]-3,4,6,7,8,9-hexahydropyrido[2,1-c][1,2,4]thiadiazine 2,2-dioxide]", "values": [
      {"measurement": "activity (%)", "setting": "[2]", "value": 74, "unit": "%"},
      {"measurement": "melting point", "value": "156 to 157", "unit": "°C"}
    ]},
    {"smiles": "COc1cccc(Oc2ccc([C@@H]3CCCN4CCS(=O)(=O)N=C34)cc2)c1", "note": "[Example 219, (9S)-9-[4-(3-methoxyphenoxy)phenyl]-3,4,6,7,8,9-hexahydropyrido[2,1-c][1,2,4]thiadiazine 2,2-dioxide]", "values": [
      {"measurement": "activity (%)", "setting": "[2]", "value": 83, "unit": "%"},
      {"measurement": "melting point", "value": "139 to 140", "unit": "°C"}
    ]},
    {"smiles": "O=S1(=O)CCN2CCC[C@@H](c3ccc(Oc4cc(F)c(F)c(F)c4)cc3)C2=N1", "note": "[Example 227, (9S)-9-[4-(3,4,5-trifluorophenoxy)phenyl]-3,4,6,7,8,9-hexahydropyrido[2,1-c][1,2,4]thiadiazine 2,2-dioxide]", "values": [
      {"measurement": "activity (%)", "setting": "[2]", "value": 68, "unit": "%"},
      {"measurement": "melting point", "value": "180 to 181", "unit": "°C"}
    ]},
    {"smiles": "O=S1(=O)CCN2CCCC(c3ccc(Oc4ccc(C(F)(F)F)cc4)cc3)C2=N1", "note": "(stereo not drawn) [Example 232, 9-{4-[4-(trifluoromethyl)phenoxy]phenyl}-3,4,6,7,8,9-hexahydropyrido[2,1-c][1,2,4]thiadiazine 2,2-dioxide]", "values": [
      {"measurement": "activity (%)", "setting": "[2]", "value": 60, "unit": "%"},
      {"measurement": "melting point", "value": "174 to 176", "unit": "°C"}
    ]},
    {"smiles": "Cc1cc(F)cc(Oc2ccc([C@@H]3CCCN4CCS(=O)(=O)N=C34)cc2)c1", "note": "[Example 236, (9S)-9-[4-(3-fluoro-5-methylphenoxy)phenyl]-3,4,6,7,8,9-hexahydropyrido[2,1-c][1,2,4]thiadiazine 2,2-dioxide]", "values": [
      {"measurement": "activity (%)", "setting": "[2]", "value": 74, "unit": "%"},
      {"measurement": "melting point", "value": "158 to 159", "unit": "°C"}
    ]}
  ]
}
